2 compounds from article PMC3469822, “ATP-Driven Remodeling of the Linker Domain in the Dynein Motor” (Structure(London, England:1993), 2012) can be followed below.

The target in test [1] is T1, cytoplasmic dynein motor domain (380 kDa) (Dictyostelium discoideum, UniProt P34036, E2027Q).
T1 construct: gene dhcA; tail-less motor domain V1388-I4730, N-terminal His6 and FLAG tags, 380 kDa
Put plainly: cryo-EM reconstruction of head, […] Å. Conditions: 1 mM ATP, 4 mM MgSO4, pH 7.0; AAA1 Walker B mutant that binds but does not hydrolyse ATP; ligand itself not resolved. Format: binding.

The target of test [2] is T2, cytoplasmic dynein motor domain (380 kDa) (Dictyostelium discoideum, UniProt P34036).
T2 construct: gene dhcA; tail-less motor domain V1388-I4730, N-terminal His6 and FLAG tags, 380 kDa
Put plainly: cryo-EM reconstruction of head, […] Å. Format: binding. As to conditions: 1 mM ADP, 4 mM MgSO4, pH 7.0; ligand itself not resolved.

T1 sequence (P34036 1388-4730 E2027Q): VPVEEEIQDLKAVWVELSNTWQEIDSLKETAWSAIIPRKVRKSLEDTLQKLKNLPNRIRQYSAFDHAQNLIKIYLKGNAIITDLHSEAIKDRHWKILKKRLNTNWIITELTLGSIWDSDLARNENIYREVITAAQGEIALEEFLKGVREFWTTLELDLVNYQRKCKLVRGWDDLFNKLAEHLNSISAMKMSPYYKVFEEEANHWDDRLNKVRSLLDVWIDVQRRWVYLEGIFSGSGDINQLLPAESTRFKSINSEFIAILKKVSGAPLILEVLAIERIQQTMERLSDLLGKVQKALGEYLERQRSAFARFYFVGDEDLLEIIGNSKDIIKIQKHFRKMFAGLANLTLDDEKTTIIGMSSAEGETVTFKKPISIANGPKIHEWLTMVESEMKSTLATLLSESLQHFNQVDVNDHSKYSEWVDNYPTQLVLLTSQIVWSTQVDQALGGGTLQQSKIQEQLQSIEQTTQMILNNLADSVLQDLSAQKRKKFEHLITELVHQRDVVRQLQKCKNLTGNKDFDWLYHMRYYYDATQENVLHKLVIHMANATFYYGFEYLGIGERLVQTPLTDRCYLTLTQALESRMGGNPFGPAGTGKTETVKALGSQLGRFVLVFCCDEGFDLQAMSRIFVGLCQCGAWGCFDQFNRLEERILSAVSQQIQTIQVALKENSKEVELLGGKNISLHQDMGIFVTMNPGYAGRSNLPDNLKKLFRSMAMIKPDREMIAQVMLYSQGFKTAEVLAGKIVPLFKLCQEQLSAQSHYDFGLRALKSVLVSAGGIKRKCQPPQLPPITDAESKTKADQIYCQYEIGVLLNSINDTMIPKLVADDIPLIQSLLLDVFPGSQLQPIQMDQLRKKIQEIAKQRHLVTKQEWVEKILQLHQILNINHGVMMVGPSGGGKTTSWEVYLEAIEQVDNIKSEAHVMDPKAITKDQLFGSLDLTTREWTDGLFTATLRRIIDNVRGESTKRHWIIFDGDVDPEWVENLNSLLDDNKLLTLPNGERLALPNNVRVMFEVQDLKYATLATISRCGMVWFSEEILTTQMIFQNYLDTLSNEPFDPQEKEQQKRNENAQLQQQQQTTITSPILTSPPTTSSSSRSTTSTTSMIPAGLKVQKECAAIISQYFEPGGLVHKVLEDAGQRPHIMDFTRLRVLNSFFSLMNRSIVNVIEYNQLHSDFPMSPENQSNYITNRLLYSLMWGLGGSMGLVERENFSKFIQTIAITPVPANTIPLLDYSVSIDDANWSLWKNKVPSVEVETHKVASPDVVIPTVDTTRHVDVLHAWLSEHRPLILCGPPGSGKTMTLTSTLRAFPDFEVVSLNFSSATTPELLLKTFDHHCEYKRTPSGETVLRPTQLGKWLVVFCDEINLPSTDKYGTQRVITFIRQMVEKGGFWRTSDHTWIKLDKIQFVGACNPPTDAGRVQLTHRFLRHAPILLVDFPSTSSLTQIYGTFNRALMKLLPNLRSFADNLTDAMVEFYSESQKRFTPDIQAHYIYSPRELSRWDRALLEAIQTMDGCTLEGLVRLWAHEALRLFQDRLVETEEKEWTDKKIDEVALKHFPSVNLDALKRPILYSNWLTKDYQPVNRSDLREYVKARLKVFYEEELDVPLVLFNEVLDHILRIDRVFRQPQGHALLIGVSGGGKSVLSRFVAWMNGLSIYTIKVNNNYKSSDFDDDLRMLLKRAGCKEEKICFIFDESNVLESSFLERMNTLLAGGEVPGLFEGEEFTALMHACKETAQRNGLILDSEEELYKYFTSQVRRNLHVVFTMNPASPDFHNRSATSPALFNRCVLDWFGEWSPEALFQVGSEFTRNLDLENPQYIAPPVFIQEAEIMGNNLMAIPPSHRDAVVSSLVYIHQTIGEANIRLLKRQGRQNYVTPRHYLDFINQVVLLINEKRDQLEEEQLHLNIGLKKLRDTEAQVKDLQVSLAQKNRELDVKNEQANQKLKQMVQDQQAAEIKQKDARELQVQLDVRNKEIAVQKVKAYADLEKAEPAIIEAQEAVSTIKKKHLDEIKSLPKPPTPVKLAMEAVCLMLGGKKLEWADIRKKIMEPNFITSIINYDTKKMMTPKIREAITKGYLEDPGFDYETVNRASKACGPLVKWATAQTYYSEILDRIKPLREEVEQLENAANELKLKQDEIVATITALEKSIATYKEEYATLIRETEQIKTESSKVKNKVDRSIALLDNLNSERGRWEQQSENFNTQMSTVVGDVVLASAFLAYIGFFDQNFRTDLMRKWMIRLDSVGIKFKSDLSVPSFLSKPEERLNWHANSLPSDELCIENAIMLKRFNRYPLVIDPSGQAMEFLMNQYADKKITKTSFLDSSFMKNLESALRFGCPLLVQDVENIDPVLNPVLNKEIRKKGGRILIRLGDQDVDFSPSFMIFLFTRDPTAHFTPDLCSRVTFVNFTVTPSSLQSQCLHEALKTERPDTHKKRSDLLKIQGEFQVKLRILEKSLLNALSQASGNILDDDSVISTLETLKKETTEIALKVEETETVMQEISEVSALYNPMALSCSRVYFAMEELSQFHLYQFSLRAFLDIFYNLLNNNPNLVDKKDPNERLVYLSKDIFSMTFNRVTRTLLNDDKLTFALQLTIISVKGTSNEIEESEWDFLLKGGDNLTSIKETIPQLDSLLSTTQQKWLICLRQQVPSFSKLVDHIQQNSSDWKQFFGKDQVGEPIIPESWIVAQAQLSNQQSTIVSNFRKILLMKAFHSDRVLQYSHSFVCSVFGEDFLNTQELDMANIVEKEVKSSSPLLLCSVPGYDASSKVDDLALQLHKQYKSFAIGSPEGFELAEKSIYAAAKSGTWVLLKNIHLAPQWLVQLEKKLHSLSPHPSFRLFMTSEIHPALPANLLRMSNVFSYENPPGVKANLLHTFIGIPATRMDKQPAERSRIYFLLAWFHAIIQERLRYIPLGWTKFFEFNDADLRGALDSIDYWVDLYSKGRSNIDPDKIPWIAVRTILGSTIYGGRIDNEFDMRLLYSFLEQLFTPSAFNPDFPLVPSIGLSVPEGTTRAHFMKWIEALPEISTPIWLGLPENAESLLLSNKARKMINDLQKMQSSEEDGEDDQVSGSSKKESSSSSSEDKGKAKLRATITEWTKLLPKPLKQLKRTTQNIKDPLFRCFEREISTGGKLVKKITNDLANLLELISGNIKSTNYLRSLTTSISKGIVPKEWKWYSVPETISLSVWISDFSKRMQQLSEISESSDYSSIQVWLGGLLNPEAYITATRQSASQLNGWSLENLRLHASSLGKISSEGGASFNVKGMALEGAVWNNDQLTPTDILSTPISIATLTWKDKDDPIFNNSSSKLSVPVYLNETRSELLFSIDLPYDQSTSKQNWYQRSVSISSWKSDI
T2 sequence (P34036 1388-4730): as the sequence (P34036 1388-4730 E2027Q) above, with Q640E counted along it

As to `Nc1ncnc2c1ncn2[C@@H]1O[C@H](COP(=O)(O)OP(=O)(O)OP(=O)(O)O)[C@@H](O)[C@H]1O` [ATP], the “cryo-EM reconstruction of head, 25 Å” value in test [1] was “cytoplasmic dynein head, bearing a E2027Q substitution, in the ATP state”.

Turning to `Nc1ncnc2c1ncn2[C@@H]1O[C@H](COP(=O)(O)OP(=O)(O)O)[C@@H](O)[C@H]1O` [ADP], the “cryo-EM reconstruction of head, 23 Å” value in test [2] is listed as “Cryo-EM reconstruction of the head domain of cytoplasmic dynein in the presence of ADP”.
